We go through 14 compounds from patent publication US8460858B2, “Near-infrared-ray absorbing material containing cyanine compound, and cyanine compound” (Adeka Corporation, priority 2008, dated 2013).

Where a name gives a salt, the structure may show the parent alone.

The nature of series [1]: Solubility measurement in methyl ethyl ketone (MEK). Format: physicochemical. The conditions noted are these: concentration when the solute completely dissolved. How it is done: The solubility measurement was conducted as follows: the compound to be tested was weighed; methyl ethyl ketone (MEK) was slowly added thereto; when the solute completely dissolved, the solution was weighed; and the concentration of the test compound in the solution was determined by calculation.

A short description of series [2]: Decomposition point measurement (TG/DTA). The conditions noted are these: temperature at which the mass started to decrease, differential thermal analysis, temperature-rise rate 10° C./minute. The format is physicochemical. How it is done:
The UV-Visible absorption spectra measurement was conducted by preparing a chloroform solution of each compound to be tested, and employing a UV-Vis-NIR spectrophotometer (“V-570”; product from JASCO Corporation). The decomposition point measurement was conducted using a thermogravimetry differential thermal analyzer (“TG/DTA 6200”; product from Seiko Instruments Inc.), to find the temperature at which the mass started to decrease in differential thermal analysis at a temperature-rise rate of 10° C./minute.

Regarding `O=S(=O)(c1ccc2c(c1)[S][Cu-]1([S]2)[S]c2ccc(S(=O)(=O)N3CCOCC3)cc2[S]1)N1CCOCC1` [1-3, reference compound], the “Solubility (MEK)” value in series [1] is reported as 0.20 wt %. Moreover, the “Decomposition Point” value in series [2] was 198.7 °C.
On the same counts, the results for `CN1/C(=C/C=C/C=C/C=C/C=C/C2=[N+](C)c3ccccc3C2(C)C)C(C)(C)c2ccccc21` [Example 1-10, bis(trifluoromethane sulfone)imide salt of Compound No. 61] are 0.73 wt % and 238.4 °C.
`CN1/C(=C/C=C/C=C/C=C/C=C/C2=[N+](C)c3ccc4ccccc4c3C2(C)Cc2ccccc2)C(C)(Cc2ccccc2)c2c1ccc1ccccc21` (stereo not shown) [Example 1-4, Bis(Trifluoromethane Sulfone)Imide Salt of Compound No. 3]: the “Solubility (MEK)” value in series [1] was 0.98 wt %. Also, in series [2], the “Decomposition Point” value was found to be 255.8 °C.
On the same counts, the results for `O=S(=O)(c1ccc2c(c1)[S][Cu-]1([S]2)[S]c2ccc(S(=O)(=O)N3CCOCC3)cc2[S]1)N1CCOCC1` [Example 1-8, Quencher (1-1) Salt of Compound No. 4] are 3.69 wt % and 258.8 °C.
`CN1/C(=C/C=C/C=C/C=C/C=C/C2=[N+](C)c3ccc4ccccc4c3C23CCCCC3)C2(CCCCC2)c2c1ccc1ccccc21` [Example 1-11, bis(trifluoromethane sulfone)imide salt of Compound No. 64]: in series [1], the “Solubility (MEK)” value is on record as 1.46 wt %. Moreover, the “Decomposition Point” value in series [2] is 280.7 °C.
On the same counts, the results for `CN1/C(=C/C=C/C=C/C=C/C=C/C2=[N+](C)c3ccc4ccccc4c3C2(C)Cc2ccccc2)C(C)(Cc2ccccc2)c2c1ccc1ccccc21` (stereo not shown) [Example 1-3, Tetrafluoroborate Salt of Compound No. 3] are 0.97 wt % and 180.5 °C.
On the same counts, the results for `CN1/C(=C/C=C/C=C/C=C/C=C/C2=[N+](C)c3ccc4ccccc4c3C2(Cc2ccccc2)Cc2ccccc2)C(Cc2ccccc2)(Cc2ccccc2)c2c1ccc1ccccc21` [Example 1-6, Tetrafluoroborate Salt of Compound No. 4] are 1.62 wt % and 192.6 °C.
On the same counts, the results for `CN1/C(=C/C=C/C=C/C=C/C=C/C2=[N+](C)c3ccc4ccccc4c3C2(Cc2ccccc2)Cc2ccccc2)C(Cc2ccccc2)(Cc2ccccc2)c2c1ccc1ccccc21` [Example 1-7, Bis(Trifluoromethane Sulfone)Imide Salt of Compound No. 4] are 3.71 wt % and 266.5 °C.
Take `CN1/C(=C/C=C/C=C/C=C/C=C/C2=[N+](C)c3c(c4ccccc4c4ccccc34)C2(C)C)C(C)(C)c2c1c1ccccc1c1ccccc21` [1-4, reference compound]: the “Solubility (MEK)” value in series [1] was 0.28 wt %. Further, the “Decomposition Point” value in series [2] worked out at 261.3 °C.
On the same counts, the results for `CN1/C(=C/C=C/C=C/C=C/C=C/C2=[N+](C)c3c(c4ccccc4c4ccccc34)C2(C)C)C(C)(C)c2c1c1ccccc1c1ccccc21` [Example 1-12, bis(trifluoromethane sulfone)imide salt of Compound No. 105] are 1.13 wt % and 291.5 °C.
On the same counts, the results for `CN1/C(=C/C=C/C=C/C=C/C=C/C2=[N+](C)c3ccccc3C2(Cc2ccccc2)Cc2ccccc2)C(Cc2ccccc2)(Cc2ccccc2)c2ccccc21` [Example 1-2, Bis(Trifluoromethane Sulfone)Imide Salt of Compound No. 2] are 2.34 wt % and 248.6 °C.
On the same counts, the results for `CN1/C(=C/C=C/C=C/C=C/C=C/C2=[N+](C)c3ccccc3C2(Cc2ccccc2)Cc2ccccc2)C(Cc2ccccc2)(Cc2ccccc2)c2ccccc21` [Example 1-1, Tetrafluoroborate Salt of Compound No. 2] are 0.16 wt % and 238.3 °C.
In the case of `O=S(=O)(c1ccc2c(c1)[S][Cu-]1([S]2)[S]c2ccc(S(=O)(=O)N3CCOCC3)cc2[S]1)N1CCOCC1` [Example 1-5, Quencher (1-1) Salt of Compound No. 3], the “Solubility (MEK)” value in series [1] is recorded as 0.39 wt %. Also, the “Decomposition Point” value in series [2] stood at 249.1 °C.
With `CCCN1/C(=C/C=C/C=C/C=C/C=C/C2=[N+](CCC)c3ccc4ccccc4c3C2(Cc2ccccc2)Cc2ccccc2)C(Cc2ccccc2)(Cc2ccccc2)c2c1ccc1ccccc21` [Example 1-9, Tetrafluoroborate Salt of Compound No. 6], the “Solubility (MEK)” value in series [1] is listed as 1.36 wt %. In series [2], the “Decomposition Point” value was 193.8 °C.
